Legend:
[1] = test system: PD patients with constipation; test: Safety and adverse event profile, Stage 1; format: in vivo, human
Excerpt: (§1) Tolerability limits included diarrhea or vomiting.

[2] = Preclinical oral bioavailability and intestinal absorption in rats; format: in vivo; details: oral radioactive ENT-01, portal blood concentrations
[3] = Pharmacokinetics of orally administered squalamine (ENT-01) in Stage 1; format: in vivo, human; details: based on PK of intravenously administered squalamine in prior clinical studies
Description: PK data were collected on the 10 patients enrolled in Stage 1 and 10 patients enrolled in Stage 2 to determine the extent of systemic absorption. In Stage 1, PK data were obtained at each visit, pre-medication, at 1, 2, 4, 8 and 24 hours (Table 10). In Stage 2, PK was measured on days 1 and 6 of the randomization period pre-medication, at 1, 2, 4 and 8 hours (Table 11).
The mean Cmax, Tmax and T1/2 and AUC of the squalamine ion following squalamine (ENT-01) oral dosing for Stage 1 patients. The PK analyses are only approximate, as the lower limit of the validated concentration range was 10 ng/ml; most of the measured concentrations fell below that value. The mean Cmax, Tmax and T1/2 and AUC of the squalamine ion following squalamine (ENT-01) oral dosing for Stage 2 patients. The PK analyses are only approximate, as the lower limit of the validated concentration range was 0.5 ng/ml.

[4] = test system: PD patients with constipation; test: Safety and adverse event profile, Stage 2; format: in vivo, human
Description: (§2) In Stage 2, 34 patients were evaluated.

[5] = test system: PD patients with constipation; test: Phase 2 trial Stage 2: bowel function under daily oral dosing (fixed dose, randomized period, wash-out); format: in vivo, human; details: Stage 2 fixed dose
Description: (§3) Following successful screening, all subjects underwent a 14-day run-in period where the degree of constipation was assessed through a validated daily log (Zinsmeister et al. 2013) establishing baseline CSBMs/week. Subjects with an average of <3 CSBMs/week proceeded to dosing.
as §2
The primary efficacy outcome variable was whether or not a subject was a “success” or “failure”. This is an endpoint based on subject diary entries for the “fixed dose” period prior to the endpoint assessment defined as average complete stool frequency increase by 1 or more over baseline, or 3 or more complete spontaneous stools/week. The subject was deemed a “success” if s/he met one or more of the criteria listed above, otherwise the subject was deemed a “failure”. The primary analysis was based on all subjects with a baseline assessment and an assessment at the end of the “fixed-dose” period and was a comparison of the proportion of successes with 0.10 (the null hypothesis corresponding to no treatment effect).
The proportion of subjects for whom the drug was a success was estimated with a binomial point estimate and corresponding 95% confidence interval. A secondary analysis compared the proportions of subjects who are deemed a success at the end of the randomized fixed-dose period between those randomized to the squalamine (ENT-01) arm and those randomized to the placebo arm. A Fisher's exact test was used to compare the proportions of subjects who were deemed a success at the end of randomization period between the two randomized arms

[6] = test system: PD patients with constipation; test: Phase 2 trial Stage 1: prokinetic response to single escalating oral doses; format: in vivo, human; details: Example 1, FIG. 1A
Description: as §3, §1

[7] = Solubility in water; format: physicochemical; details: phosphate salt

SMILES: CC(C)[C@@H](CC[C@@H](C)[C@H]1CC[C@H]2[C@@H]3[C@H](O)C[C@H]4C[C@@H](NCCCNCCCCN)CC[C@]4(C)[C@H]3CC[C@]12C)OS(=O)(=O)O (single isomer, unassigned) [squalamine (ENT-01), squalamine]
- diarrhea, patients ([1]; Stage 1, 4/10 patients): 40%
- nausea, patients ([1]; Stage 1, 4/10 patients): 40%
- AEs confined to the GI tract ([1]; Stage 1, share of AEs): 88%
- absorption from the intestine [2]: low
- oral bio-availability (estimated) [3]: less than 0.3%
- oral bio-availability (estimated) ([3]; listed as aminosterol): < 0.3%
- patients who withdrew during dosing because of diarrhea ([4]; Stage 2): 2 patients
- diarrhea, patients ([4]; Stage 2, 15/34 patients): 44%
- Abdominal pain, Mild ([4]; Stage 2, 34 dosed): 4 n
- Abdominal pain, Moderate ([4]; Stage 2, 34 dosed): 2 n
- Blood in urine, Mild ([4]; Stage 2, 34 dosed): 0 n
- Blood in urine, Moderate ([4]; Stage 2, 34 dosed): 0 n
- Diarrhea, Mild ([4]; Stage 2, 34 dosed): 12 n
- Diarrhea, Moderate ([4]; Stage 2, 34 dosed): 2 n
- Diarrhea, Severe ([4]; Stage 2, 34 dosed): 1 n
- Difficulty falling asleep, Mild ([4]; Stage 2, 34 dosed): 1 n
- Difficulty falling asleep, Moderate ([4]; Stage 2, 34 dosed): 0 n
- Dizziness, Mild ([4]; Stage 2, 34 dosed): 7 n
- Dizziness, Moderate ([4]; Stage 2, 34 dosed): 1 n
- Eye infection, Mild ([4]; Stage 2, 34 dosed): 1 n
- Eye infection, Moderate ([4]; Stage 2, 34 dosed): 0 n
- Flatulence, Mild ([4]; Stage 2, 34 dosed): 1 n
- Flatulence, Moderate ([4]; Stage 2, 34 dosed): 0 n
- Headache, Mild ([4]; Stage 2, 34 dosed): 3 n
- Headache, Moderate ([4]; Stage 2, 34 dosed): 0 n
- Increased urinary frequency, Mild ([4]; Stage 2, 34 dosed): 2 n
- Increased urinary frequency, Moderate ([4]; Stage 2, 34 dosed): 0 n
- Loss of appetite, Mild ([4]; Stage 2, 34 dosed): 0 n
- Loss of appetite, Moderate ([4]; Stage 2, 34 dosed): 0 n
- Nausea, Mild ([4]; Stage 2, 34 dosed): 18 n
- Nausea, Moderate ([4]; Stage 2, 34 dosed): 1 n
- Skin lesions-rash, Mild ([4]; Stage 2, 34 dosed): 3 n
- Skin lesions-rash, Moderate ([4]; Stage 2, 34 dosed): 0 n
- Urinary retention, Mild ([4]; Stage 2, 34 dosed): 1 n
- Urinary retention, Moderate ([4]; Stage 2, 34 dosed): 0 n
- Urinary tract infection, Mild ([4]; Stage 2, 34 dosed): 1 n
- Urinary tract infection, Moderate ([4]; Stage 2, 34 dosed): 2 n
- Vomiting, Mild ([4]; Stage 2, 34 dosed): 2 n
- Vomiting, Moderate ([4]; Stage 2, 34 dosed): 0 n
- Worsening acid reflux, Mild ([4]; Stage 2, 34 dosed): 4 n
- Worsening acid reflux, Moderate ([4]; Stage 2, 34 dosed): 0 n
- Worsening hemorrhoid, Mild ([4]; Stage 2, 34 dosed): 1 n
- Worsening hemorrhoid, Moderate ([4]; Stage 2, 34 dosed): 0 n
- AEs confined to the GI tract ([4]; Stage 2, share of AEs): 63%
- Lower GI bleed, Severe ([4]; Stage 2, Unrelated to ENT-01): 1 n
- lower GI bleed (Serious adverse event, SAE) ([4]; during the withdrawal period, considered unrelated to study medication): One patient
- CSBM, weekly average (mean, SD) ([5]; n=34, baseline 1.2 (0.90)): 3.8 /week
- SBM, weekly average (mean, SD) ([5]; n=34, baseline 2.6 (1.45)): 4.5 /week
- Suppository use / rescue medication, weekly average (mean, SD) ([5]; baseline 1.8 (1.92)): 0.3 /week
- Consistency, Bristol stool scale (mean, SD) ([5]; scale 1-7, baseline 2.7 (1.20), listed as aminosterol): 4.1
- Ease of passage, Ease of evacuation scale (mean, SD) ([5]; scale 1-7, baseline 3.2 (0.73), listed as aminosterol): 3.7
- subjects responded with improved bowel function [6]: 80%
- solubility in water ([7]; neutral pH): weakly soluble
- solubility in water ([7]; pH<3.5 (the pH of gastric fluid)): readily dissolves

— US20200038415A1, “AMINOSTEROL COMPOSITIONS AND METHODS OF USING THE SAME FOR TREATING ERECTILE DYSFUNCTION” (Enterin, Inc., priority 2018, published 2020)
